Here are results for 21 molecules from PubChem BioAssay AID330 (DTP/NCI, 2004).

The test system of the experiment is P388 leukemia ip, CD2F1 mice, survival T/C. Nature of the experiment: NCI In Vivo Anticancer Drug Screen. Data for tumor model P388 Leukemia (intraperitoneal) in CD2F1 (CDF1) mice. As to conditions: endpoint: median survival time, higher = longer survival. A digest of the protocol:
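Mice carrying the transplanted tumor received test compound or vehicle. Survival was recorded in each group, and the value is the treated-group measurement divided by that of the vehicle-treated control group.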

[1] abbreviates: dose: 50.0 mg/kg/injection, schedule: Q01DX009 (ip), vehicle: Klucel (hydroxypropylcellulose) (HPC).
[2] abbreviates: dose: 100.0 mg/kg/injection, schedule: Q01DX009 (ip), vehicle: Klucel (hydroxypropylcellulose) (HPC).
Setting [3] is: dose: 200.0 mg/kg/injection, schedule: Q01DX009 (ip), vehicle: Klucel (hydroxypropylcellulose) (HPC).
[4] abbreviates: dose: 12.5 mg/kg/injection, schedule: Q01DX009 (ip), vehicle: saline with Tween-80.
Setting [5] is: dose: 50.0 mg/kg/injection, schedule: Q01DX009 (ip), vehicle: saline with Tween-80.
The mark [6] stands for this setting: dose: 100.0 mg/kg/injection, schedule: Q01DX009 (ip), vehicle: saline with Tween-80.
Where [7] appears, read: dose: 200.0 mg/kg/injection, schedule: Q01DX009 (ip), vehicle: saline with Tween-80.
[8] abbreviates: dose: 60.0 mg/kg/injection, schedule: Q01DX005 (ip), vehicle: saline with Tween-80.
Where [9] appears, read: dose: 120.0 mg/kg/injection, schedule: Q01DX005 (ip), vehicle: saline with Tween-80.
The mark [10] stands for this setting: dose: 240.0 mg/kg/injection, schedule: Q01DX005 (ip), vehicle: saline with Tween-80.
Setting [11] is: dose: 50.0 mg/kg/injection, schedule: Q01DX005 (ip), vehicle: Klucel (hydroxypropylcellulose) (HPC).
Setting [12] is: dose: 100.0 mg/kg/injection, schedule: Q01DX005 (ip), vehicle: Klucel (hydroxypropylcellulose) (HPC).
Setting [13] is: dose: 200.0 mg/kg/injection, schedule: Q01DX005 (ip), vehicle: Klucel (hydroxypropylcellulose) (HPC).

Several values for one entry are separate records, joined by “and”; a condition that tells them apart may be missing. Identical values can stand only once. Toxic doses and inconclusive results are not listed.

Take `O=C(CC[N+](=O)[O-])OCC1OC(OC(=O)CC[N+](=O)[O-])C(O)C(O)C1O` (configuration not stated): the T/C by setting is: (dose: 12.5 mg/kg/injection, schedule: Q01DX005 (ip), vehicle: water) 98 % of control; (dose: 25.0 mg/kg/injection, schedule: Q01DX001 (ip), vehicle: saline + alcohol) 102 % of control; (dose: 25.0 mg/kg/injection, schedule: Q01DX005 (ip), vehicle: water) 104 % of control; (dose: 50.0 mg/kg/injection, schedule: Q01DX001 (ip), vehicle: saline + alcohol) 96 % of control; (dose: 50.0 mg/kg/injection, schedule: Q01DX005 (ip), vehicle: water) 97 % of control; (dose: 100.0 mg/kg/injection, schedule: Q01DX001 (ip), vehicle: saline + alcohol) 105 % of control. The T/C (dose: 100.0 mg/kg/injection, schedule: Q01DX005 (ip), vehicle: water) is 95 % of control and the T/C (dose: 200.0 mg/kg/injection, schedule: Q01DX005 (ip), vehicle: water) was 100 % of control.

In the case of `C#C/C=C/CC1OC(CC)/C=C\C=C/CC1Cl` (configuration not stated), the T/C (dose: 2.0 mg/kg/injection, schedule: Q01DX009 (ip), vehicle: Klucel (hydroxypropylcellulose) (HPC)) was 100 % of control; the T/C (dose: 4.0 mg/kg/injection, schedule: Q01DX009 (ip), vehicle: Klucel (hydroxypropylcellulose) (HPC)) is 109 % of control; the T/C (dose: 8.0 mg/kg/injection, schedule: Q01DX009 (ip), vehicle: Klucel (hydroxypropylcellulose) (HPC)) was 96 % of control; the T/C (dose: 16.0 mg/kg/injection, schedule: Q01DX009 (ip), vehicle: Klucel (hydroxypropylcellulose) (HPC)) is 104 % of control.

With `[O-]/[N+](=C\c1ccc(Cl)cc1Cl)c1ccccc1`, the T/C reads like this: under setting [1], 96 % of control; under setting [2], 100 % of control; under setting [3], 100 % of control.

Turning to `CC1(C)COCN1COCCCOCN1COCC1(C)C`, the T/C is 102 % of control under setting [4]; 120 % of control (dose: 25.0 mg/kg/injection, schedule: Q01DX009 (ip), vehicle: saline with Tween-80); 118 % of control (dose: 150.0 mg/kg/injection, schedule: Q01DX009 (ip), vehicle: saline with Tween-80).

Take `O=C(CCc1ccc(O)c(O)c1)c1ccc(O)c(O)c1O`: the T/C was 111 % of control (dose: 4.0 mg/kg/injection, schedule: Q01DX009 (ip), vehicle: saline); 104 % of control (dose: 8.0 mg/kg/injection, schedule: Q01DX009 (ip), vehicle: saline); 102 % of control (dose: 16.0 mg/kg/injection, schedule: Q01DX009 (ip), vehicle: saline); 114 % of control (dose: 32.0 mg/kg/injection, schedule: Q01DX009 (ip), vehicle: saline).

In the case of `CCC(=O)c1ccc(OC(C)=O)cc1`, the T/C was 103 % of control (dose: 50.0 mg/kg/injection, schedule: Q04DX003 (ip), vehicle: saline with Tween-80); 103 % of control (dose: 100.0 mg/kg/injection, schedule: Q04DX003 (ip), vehicle: saline with Tween-80); 96 % of control (dose: 200.0 mg/kg/injection, schedule: Q04DX003 (ip), vehicle: saline with Tween-80).

Take `O=C(NC(=NC(=NC1CCCCC1)c1ccccc1)c1ccccc1)c1ccccc1`: the T/C by setting is: under setting [5], 99 % of control; under setting [6], 92 % of control; under setting [7], 89 % of control.

Regarding `COC1=C(Br)C(O)C2(C=C1Br)CC(C(=O)NCC(O)COc1c(Br)cc(C(O)CNC(=O)C3=NOC4(C=C(Br)C(OC)=C(Br)C4O)C3)cc1Br)=NO2` (configuration not stated), the T/C (dose: 25.0 mg/kg/injection, schedule: Q01DX009 (ip), vehicle: saline + Tween-80 + alcohol) is 110 % of control; the T/C (dose: 50.0 mg/kg/injection, schedule: Q01DX009 (ip), vehicle: saline + Tween-80 + alcohol) is 112 % of control and 92 % of control; the T/C (dose: 100.0 mg/kg/injection, schedule: Q01DX009 (ip), vehicle: saline + Tween-80 + alcohol) was 112 % of control and 92 % of control; the T/C (dose: 200.0 mg/kg/injection, schedule: Q01DX009 (ip), vehicle: saline + Tween-80 + alcohol) was 102 % of control.

`O=c1[nH]c2c([N+](=O)[O-])cc(Cl)cc2nc1/C=C(\O)c1ccco1`: the T/C is, setting by setting: under setting [8], 101 % of control; under setting [9], 89 % of control; under setting [10], 92 % of control.

For `CC(c1c[nH]c2ccccc12)N1CCCCC1` (configuration not stated), the T/C was 109 % of control (dose: 12.5 mg/kg/injection, schedule: Q01DX009 (ip), vehicle: Klucel (hydroxypropylcellulose) (HPC)); 115 % of control (dose: 25.0 mg/kg/injection, schedule: Q01DX009 (ip), vehicle: Klucel (hydroxypropylcellulose) (HPC)); 113 % of control under setting [1].

Take `CC12C=C(C(=O)c3ccccc3)C(CC1)C2(C)C` (configuration not stated): the T/C was 100 % of control under setting [6]; 95 % of control under setting [7]; 90 % of control (dose: 400.0 mg/kg/injection, schedule: Q01DX009 (ip), vehicle: saline with Tween-80).

As for `Clc1nnc(C(Cl)Cl)o1`, the T/C was 114 % of control under setting [1], 106 % of control under setting [2] and 99 % of control under setting [3].

For the molecule `C=C(C)CC1CN2CCc3cc(OC)c(OC)cc3C2CC1=O` (configuration not stated), the T/C was 106 % of control under setting [1], 102 % of control under setting [5], 104 % of control under setting [2] and 116 % of control under setting [6].

With `CCCCCCCCOP(=O)(N1CC1C)N1CC1C` (configuration not stated), the T/C under setting [4] was 113 % of control; the T/C (dose: 25.0 mg/kg/injection, schedule: Q04DX003 (ip), vehicle: saline) is 109 % of control; the T/C under setting [5] is 158 % of control and 168 % of control; the T/C (dose: 50.0 mg/kg/injection, schedule: Q04DX003 (ip), vehicle: saline) was 113 % of control.

On to `CC(=O)OC1CCC2(C)CCC3C(OC(=O)C3(C)[Se]c3ccccc3)C2C1C` (configuration not stated), for which the T/C (dose: 100.0 mg/kg/injection, schedule: Q04DX002 (ip), vehicle: saline with Tween-80) is 91 % of control.

For `Nc1nc(N)c2cc(NCc3ccccc3Cl)ccc2n1`, the T/C is, setting by setting: (dose: 6.25 mg/kg/injection, schedule: Q01DX001 (ip), vehicle: saline with Tween-80) 100 % of control; (dose: 12.5 mg/kg/injection, schedule: Q01DX001 (ip), vehicle: saline with Tween-80) 112 % of control; (dose: 16.5 mg/kg/injection, schedule: Q01DX009 (ip), vehicle: saline with Tween-80) 104 % of control; (dose: 25.0 mg/kg/injection, schedule: Q01DX001 (ip), vehicle: saline with Tween-80) 104 % of control.

Regarding `CC(=O)OC1C(C)C2CCC13CC=C(C)CC23` (configuration not stated), the T/C under setting [11] is 101 % of control, the T/C under setting [12] was 108 % of control and the T/C under setting [13] was 110 % of control.

With `O=c1[nH]c(=S)[nH]cc1-c1ccc(Cl)c(Cl)c1`, the T/C runs as follows: (dose: 50.0 mg/kg/injection, schedule: Q01DX009 (ip), vehicle: suspension in saline) 105 % of control; (dose: 100.0 mg/kg/injection, schedule: Q01DX009 (ip), vehicle: suspension in saline) 104 % of control; (dose: 200.0 mg/kg/injection, schedule: Q01DX009 (ip), vehicle: suspension in saline) 106 % of control.

For the molecule `Cc1cc2c(=O)[nH]cnc2n1C1C(O)CCCC1O` (configuration not stated), the T/C is, setting by setting: under setting [11], 106 % of control; under setting [12], 104 % of control; under setting [13], 107 % of control.

Consider `CSC1=NC=C(C#N)C2=NC(c3cccs3)NN12` (configuration not stated), for which the T/C is, setting by setting: under setting [8], 118 % of control; under setting [9], 99 % of control; under setting [10], 96 % of control.

On to `C=C[C@H]1[C@H](OC2OC(CO)C(O)C(O)C2O)OC=C2C(=O)N3CCc4c([nH]c5ccccc45)C3C[C@H]21` (some centres not stated), for which the T/C (dose: 100.0 mg/kg/injection, schedule: Q01DX001 (ip), vehicle: saline with Tween-80) was 107 % of control; the T/C (dose: 200.0 mg/kg/injection, schedule: Q01DX001 (ip), vehicle: saline with Tween-80) was 94 % of control; the T/C (dose: 400.0 mg/kg/injection, schedule: Q01DX001 (ip), vehicle: saline with Tween-80) was 89 % of control.
